“Also recorded” adds a separate entry of the source. Where two headings read alike, the source gives them in different places.
Columns and labels:
Format in all cases: cell-based
[1] = target: T1, NPC1 (Homo sapiens, UniProt O15118); assay: Lysosomal cholesterol storage in normal human fibroblasts treated with inhibitor; conditions: normal human fibroblasts incubated overnight, fluorescent cholesterol probe, FIG. 6 and 7
T1 construct: endogenous in cells; host or cells: normal human fibroblasts
T1 sequence (O15118 23-1278): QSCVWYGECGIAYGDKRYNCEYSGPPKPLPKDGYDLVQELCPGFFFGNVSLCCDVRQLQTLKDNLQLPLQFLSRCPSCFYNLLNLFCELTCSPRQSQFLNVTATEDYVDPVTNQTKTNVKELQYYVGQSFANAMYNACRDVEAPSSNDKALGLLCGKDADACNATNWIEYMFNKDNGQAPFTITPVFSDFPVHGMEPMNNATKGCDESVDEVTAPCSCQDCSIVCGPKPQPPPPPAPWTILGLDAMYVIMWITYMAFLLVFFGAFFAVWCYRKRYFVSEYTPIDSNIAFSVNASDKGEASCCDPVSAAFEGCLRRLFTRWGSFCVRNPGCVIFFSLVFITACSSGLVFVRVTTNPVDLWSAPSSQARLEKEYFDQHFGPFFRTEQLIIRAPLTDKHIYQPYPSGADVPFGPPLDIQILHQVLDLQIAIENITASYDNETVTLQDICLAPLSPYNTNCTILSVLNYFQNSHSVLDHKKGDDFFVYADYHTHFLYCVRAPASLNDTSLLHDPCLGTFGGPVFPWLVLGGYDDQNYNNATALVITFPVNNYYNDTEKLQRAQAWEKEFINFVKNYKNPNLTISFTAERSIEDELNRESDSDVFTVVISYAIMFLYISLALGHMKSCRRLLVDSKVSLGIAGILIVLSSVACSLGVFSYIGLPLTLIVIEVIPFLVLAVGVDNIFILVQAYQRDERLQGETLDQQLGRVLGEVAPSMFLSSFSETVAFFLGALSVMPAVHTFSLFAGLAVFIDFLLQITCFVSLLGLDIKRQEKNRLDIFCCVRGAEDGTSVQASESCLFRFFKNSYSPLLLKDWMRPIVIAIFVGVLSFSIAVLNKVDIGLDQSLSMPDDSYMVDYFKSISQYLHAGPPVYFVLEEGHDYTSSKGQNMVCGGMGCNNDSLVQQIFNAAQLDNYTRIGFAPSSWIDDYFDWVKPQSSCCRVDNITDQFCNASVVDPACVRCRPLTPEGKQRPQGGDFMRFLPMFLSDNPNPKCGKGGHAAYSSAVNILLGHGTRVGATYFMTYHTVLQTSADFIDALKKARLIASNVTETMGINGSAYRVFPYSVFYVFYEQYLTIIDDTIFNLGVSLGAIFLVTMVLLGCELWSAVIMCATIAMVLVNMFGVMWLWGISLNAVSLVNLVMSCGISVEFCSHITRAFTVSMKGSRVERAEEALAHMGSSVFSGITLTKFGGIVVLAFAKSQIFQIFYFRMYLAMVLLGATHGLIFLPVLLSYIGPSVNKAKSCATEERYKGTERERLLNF

[2] = target: T2, NPC1L1 (Homo sapiens, UniProt Q9UHC9, T1073A)
T2 construct: expressed in transfected cells; host or cells: Huh7-derived cells; the L1 3+ line (NPC1L1-overexpressing clone 3) is proposed for screening
T2 sequence (Q9UHC9 22-1359 T1073A): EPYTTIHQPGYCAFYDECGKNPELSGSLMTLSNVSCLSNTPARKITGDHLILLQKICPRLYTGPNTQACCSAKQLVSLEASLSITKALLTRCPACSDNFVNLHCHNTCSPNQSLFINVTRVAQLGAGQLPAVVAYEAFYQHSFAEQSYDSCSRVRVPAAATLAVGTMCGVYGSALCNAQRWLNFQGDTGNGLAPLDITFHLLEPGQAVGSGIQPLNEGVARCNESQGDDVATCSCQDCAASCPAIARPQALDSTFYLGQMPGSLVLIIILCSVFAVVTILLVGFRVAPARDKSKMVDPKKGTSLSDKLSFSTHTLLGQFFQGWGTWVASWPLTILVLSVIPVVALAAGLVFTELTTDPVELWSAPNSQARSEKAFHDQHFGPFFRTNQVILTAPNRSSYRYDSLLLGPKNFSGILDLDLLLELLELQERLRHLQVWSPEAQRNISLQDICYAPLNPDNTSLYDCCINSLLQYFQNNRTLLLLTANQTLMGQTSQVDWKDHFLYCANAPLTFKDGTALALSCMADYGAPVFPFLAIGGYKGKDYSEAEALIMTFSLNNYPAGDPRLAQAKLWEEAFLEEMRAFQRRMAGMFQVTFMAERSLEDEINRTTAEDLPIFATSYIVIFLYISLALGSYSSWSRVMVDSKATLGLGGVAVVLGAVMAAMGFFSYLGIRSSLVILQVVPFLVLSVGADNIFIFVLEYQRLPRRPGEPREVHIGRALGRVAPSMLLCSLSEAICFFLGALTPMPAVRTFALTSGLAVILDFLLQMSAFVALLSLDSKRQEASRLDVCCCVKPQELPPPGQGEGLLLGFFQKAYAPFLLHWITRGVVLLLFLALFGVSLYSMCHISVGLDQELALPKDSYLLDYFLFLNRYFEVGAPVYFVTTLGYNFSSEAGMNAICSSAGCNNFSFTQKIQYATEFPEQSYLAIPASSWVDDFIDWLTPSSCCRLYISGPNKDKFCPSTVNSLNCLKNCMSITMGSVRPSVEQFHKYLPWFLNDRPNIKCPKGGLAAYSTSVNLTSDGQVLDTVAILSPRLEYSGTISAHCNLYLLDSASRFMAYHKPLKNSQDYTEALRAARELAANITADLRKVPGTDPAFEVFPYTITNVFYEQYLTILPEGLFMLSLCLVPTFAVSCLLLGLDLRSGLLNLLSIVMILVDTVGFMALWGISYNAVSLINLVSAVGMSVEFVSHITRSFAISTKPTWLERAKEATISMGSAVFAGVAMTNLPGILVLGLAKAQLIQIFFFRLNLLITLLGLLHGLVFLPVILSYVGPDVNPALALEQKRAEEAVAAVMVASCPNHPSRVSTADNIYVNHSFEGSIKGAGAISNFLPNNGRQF

[3] = target: T2, NPC1L1; remark: listed apart in the source

Row | Structure (SMILES) | signal of NPC1L1 promoter upregulation (inhibition of the NPC1L1 protein) [2] | identification as inhibitor of NPC1L1 [3] | also measured
1 | Cl.N#CC1(c2ccccc2)CCNCC1 [#1, 4-Phenyl-4-piperidinecarbonitrile Hydrochloride] | positive signal |  | NPC1 inhibition seen as lysosomal cholesterol build-up ([1]; hydrochloride): did not demonstrate any NPC1 inhibition; NPC1 inhibition seen as lysosomal cholesterol build-up ([1]; listed as 4-cyano-4-phenylpiperidine, Hydrochloride): weaker NPC1 inhibitor; identification as inhibitor of NPC1L1 ([3]; Hydrochloride): NPC1L1 inhibitors have been identified; also recorded: identified as an inhibitor of NPC1L1
2 | CC(=O)C1=C(Nc2ccccc2C)CCC1=O [2-acetyl-3-[(2-methylphenyl)amino]-2-cyclopenten-1-one] | positive signal | NPC1L1 inhibitors have been identified | 
3 | CC(=O)c1ccc(NC(=O)c2cccs2)cc1 [N-(4-acetylphenyl)-2-thiophenecarboxamide] |  | NPC1L1 inhibitors have been identified | 
4 | COc1ccc(NC2=C(C)C(=O)CC2)cc1 [3-[(4-methoxyphenyl)amino]-2-methyl-2-cyclopenten-1-one] |  | NPC1L1 inhibitors have been identified | 
5 | c1ccc2c(CN3CCNCC3)cccc2c1 [1-(1-naphthylmethyl)piperazine] |  | NPC1L1 inhibitors have been identified | 
6 | CC(Nc1ccccc1C)=C1C(=O)CSC1=O [3{1-[(2-methylphenyl)amino]ethylidene}-2,4(3H, 5H)-thiophenedione] |  | NPC1L1 inhibitors have been identified | 
7 | CCCC(=O)C1(c2ccccc2)CCNCC1.Cl [#5, 4-butyryl-4-phenylpiperidine hydrochloride] |  |  | NPC1 inhibition seen as lysosomal cholesterol build-up ([1]; hydrochloride): distinguishable lysosomes filled with cholesterol; NPC1 inhibition seen as lysosomal cholesterol build-up ([1]; listed as 4-butyryl-4-phenylpiperidine, hydrochloride): NPC1 inhibitor
8 | O=C1[C@H](CC[C@H](O)c2ccc(F)cc2)[C@@H](c2ccc(O)cc2)N1c1ccc(F)cc1 [Ezetamibe, reference compound] | did not inhibit NPC1L1 |  | 
9 | CC(Nc1ccccc1O)=C1C(=O)CSC1=O [3 {1-[(2-hydroxyphenyl)amino]ethylidene}-2,4(3H, 5H)-thiophenedione] | positive signal | NPC1L1 inhibitors have been identified | 
10 | COc1ccccc1NC1=C(C)C(=O)CC1 [3-[(2-methoxyphenyl)amino]-2-methyl-2-cyclopenten-1-one] |  | NPC1L1 inhibitors have been identified | 
11 | CCCCN1CCCCC1C(=O)Nc1c(C)cccc1C (stereo not shown) [#7, 1-Butyl-N(2,6-diemethylphenyl)2 piperidine carboxamide] | positive signal | NPC1L1 inhibitors have been identified | 
12 | CC1CCNCC1 [#2, 4-methylpiperidine] |  |  | NPC1 inhibition seen as lysosomal cholesterol build-up [1]: weaker NPC1 inhibitor

Source: US20090035784A1 (priority 2004, published 2009)
